Measurements as given in US6150414A, “Compositions and methods for treating viral infections” (priority 1992, dated 2000).
Several values for one entry are separate records, joined by “and”; a condition that tells them apart may be missing. Identical values can stand only once.

Legend:
[1] = system: Friend Virus; assay: Friend Virus-induced splenomegaly, WIS compounds (Example 8); type: in vivo, mice; conditions: for Average % Inhibition / Average Spleen Weight / Actual Spleen Weight: Table VII; for Actual Spleen Weight: single animal
Method: The effects of compositions according to the present invention on the increase in spleen size (splenomegaly) of BALB/c mice (Jackson Labs, Bar Harbor, ME) was examined. In these experiments, the virus (10^6 focus forming units--FFU) was inoculated intravenously and 100 micrograms of the compounds indicated in Table II were administered to the mice intraperitoneally 24 hours later. Each compound was administered once to two mice. The animals were sacrificed ten days later and their spleens weighed.
As used in Table II (and subsequent Tables of this Example l(a) and (b), "average percent inhibition" is calculated as follows: [formula] wherein "ASWNC" designates "average spleen weight of negative control"; "ASWE" designates "average spleen weight of experimental (treated) subject"; and "ASWPC" designates "average spleen weight of positive control". Average spleen weight is the numerical average of spleen weights of each experimental group (in Table II each such group includes two members).
The AAB compounds whose synthesis is described above were assayed for antiviral activity. WIS-2, -3, -4, -5 and -6 were tested to determine their biological effects on Friend Virus-induced splenomegaly using the procedure and technique set forth in Example 1 above. The assay results (three mice per group were tested each at different concentrationss of the active composition except for the PBS-negative control wherein two animals per group were used) are reported in Table VII below.

[2] = biological target: T1, Radiation Leukemia Virus reverse transcriptase (Radiation murine leukemia virus, UniProt P11227); assay: Radiation Leukemia Virus reverse transcriptase assay, supernatants from infected AQR cells (Examples 4 and 9); type: biochemical; conditions: Table VIII; for CPM: replicate; for inhibition at 50 ng / inhibition at 0.0001 mg / inhibition at 0.0005 mg / inhibition at 0.001 mg / inhibition at 0.002 mg / inhibition at 0.005 mg / inhibition at 0.01 mg: 0.5 h; for inhibition at 0.01 mg: read-out: Average % Inhibition
T1 construct: the reverse transcriptase of Radiation Leukemia Virus; endogenous in cells
Method: (§1) Supernatants (10 ml/tube) from B10.T(6R) cells (Meruelo et al. J. Exp. Med. 147: 470-487, 1978) chronically infected with Radiation Leukemia Virus (RadLV) were obtained by centrifugation of cells in culture at 4° C., 3500 rpm for 15 minutes. The top 2/3 of the supernatant were removed and aliquots were incubated for 30 minutes on ice with the indicated amounts of hypericin or protohypericin. […] Thereafter, supernatants were centrifuged at 100,000×g using a TI70 rotor (Beckman Instruments) for 1 hour at 4° C. The pellet was […] and analyzed for reverse transcriptase activity as follows.
(§2) The reverse transcriptase assay was performed in a volume of 100 microliters containing the following components:
The antiviral activity of HHA was tested using AQR (Bach and Meruelo, J. Exp. Med. 160:270-285, 1984) cells chronically infected with Radiation Leukemia Virus in the reverse transcriptase assay as described in Example 3 above.
The assays were conducted using the same procedure as in Example 3 above, using supernatants from infected AQR cells.

[3] = system: Friend Leukemia Virus; assay: In vivo inhibition of Friend Leukemia Virus splenomegaly, intravenous 1-2 hours post infection (Example 10); set-up: species or system mice; conditions: Mus musculus, read-out: EC50 for FV-induced splenomegaly
Method: (§3) (3) In vivo inhibition of Friend Leukemia Virus Splenomegaly performed as described in Example 1 above except that the compounds were administered intravenously 1-2 hours post infection.
(§4) The results presented above in Table IX are presented as EC50 concentrations. These are the effective concentrations which inhibit 50% of the viruses in micromolar concentrations.

[4] = system: retroviruses (virions); assay: Direct inactivation of retroviruses (virions) in vitro (Example 10); type: biochemical, Radiation Leukemia Virus; conditions: Table IX
Method: as §1, §2
(§5) (1) Direct inactivation of retroviruses in vitro, performed as in Example 3 above;
as §4

[5] = system: retroviruses; assay: Comparison over two in vitro and one in vivo biological assays (Example 10); conditions: Example 10, structural comparison
Method: In order to investigate the structural features of hypericin which are essential for antiretroviral activity, numerous analogs and precursors of hypericin were examined for activity in two in vitro and one in vivo biological assay.
as §5, §3

| SMILES | Average % Inhibition ([1]; 1 microgram) [%] | Average Spleen Weight ([1]; 1 microgram) | Actual Spleen Weight ([1]; 1 microgram) | Average % Inhibition ([1]; 10 micrograms) [%] | Average Spleen Weight ([1]; 10 micrograms) | Actual Spleen Weight ([1]; 10 micrograms) | Average % Inhibition ([1]; 50 micrograms) [%] | Average Spleen Weight ([1]; 50 micrograms) | Actual Spleen Weight ([1]; 50 micrograms) | Average % Inhibition ([1]; 150 micrograms) [%] | Average Spleen Weight ([1]; 150 micrograms) | Actual Spleen Weight ([1]; 150 micrograms) | Average CPM ([2]; 0.05 micrograms) | CPM ([2]; 0.05 micrograms) | Average CPM ([2]; 0.1 micrograms) | CPM ([2]; 0.1 micrograms) | Average CPM ([2]; 0.5 micrograms) | CPM ([2]; 0.5 micrograms) | Average CPM ([2]; 1 microgram) | CPM ([2]; 1 microgram) | also measured |
| --- | --- | --- | --- | --- | --- | --- | --- | --- | --- | --- | --- | --- | --- | --- | --- | --- | --- | --- | --- | --- | --- |
| CC(=O)Oc1cc(C)c2c3c(C)cc(OC(C)=O)c4cc5c(OC(C)=O)cc(OC(C)=O)c6c7c(OC(C)=O)cc(OC(C)=O)c8cc1c2c(c87)c(c43)c56 [WIS-4, desoxohypericinhexaacetate] | 14.9 | 0.8480 | 0.7790 and 0.8852 and 0.8797 | 22.0 | 0.7921 | 0.8118 and 0.8625 and 0.7019 | 28.8 | 0.7384 | 0.7368 and 0.7744 and 0.7041 | 46.1 | 0.6012 | 0.6214 and 0.6663 and 0.5159 | 164,212 CPM | 156,830 CPM and 171,594 CPM | 144,512 CPM | 100,504 CPM and 188,520 CPM | 208,119 CPM | 196,740 CPM and 219,498 CPM | 180,180 CPM | 179,312 CPM and 181,048 CPM | antiviral activity in splenomegaly assay ([1]; Example 8): most active compounds of the group in the splenomegaly assay; Average CPM ([2]; 2 micrograms): 237,365 CPM; CPM ([2]; 2 micrograms): 236,374 CPM and 238,356 CPM; Average CPM ([2]; 5 micrograms): 164,440 CPM; CPM ([2]; 5 micrograms): 164,780 CPM and 164,100 CPM; Average CPM ([2]; 10 micrograms): 184,852 CPM; CPM ([2]; 10 micrograms): 186,168 CPM and 183,536 CPM; inhibition at 50 ng ([2]; 0.05 micrograms): 79.9%; inhibition at 0.0001 mg ([2]; 0.1 micrograms): 82.3%; inhibition at 0.0005 mg ([2]; 0.5 micrograms): 74.5%; inhibition at 0.001 mg ([2]; 1 microgram): 77.9%; inhibition at 0.002 mg ([2]; 2 micrograms): 70.9%; inhibition at 0.005 mg ([2]; 5 micrograms): 79.9%; inhibition at 0.01 mg ([2]; 10 micrograms): 77.4%; EC50 [3]: > 242 µM; EC50 [4]: 6.9 µM; loss of antiviral activity relative to parent [5]: loss of activity |
| CC(=O)Oc1cc(O)c2c(=O)c3c(O)cc(C)c4c5c(C)cc(O)c6c(=O)c7c(O)cc(OC(C)=O)c8c1c2c(c34)c(c65)c78 [WIS-6, hypericin diacetate] | 18.4 | 0.8210 | 0.9291 and 0.8017 and 0.7323 | 9.2 | 0.8930 | 0.8387 and 0.8529 and 0.9874 | 3.2 | 0.9407 | 0.9012 and 0.9969 and 0.9241 | 18.6 | 0.8187 | 0.7921 and 0.8013 and 0.8626 | 190,506 CPM | 195,374 CPM and 185,638 CPM | 389,388 CPM | 188,378 CPM and 590,398 CPM | 161,570 CPM | 116,590 CPM and 206,550 CPM | 153,363 CPM | 124,996 CPM and 181,730 CPM | Average CPM ([2]; 2 micrograms): 94,199 CPM; CPM ([2]; 2 micrograms): 96,562 CPM and 91,836 CPM; Average CPM ([2]; 5 micrograms): 90,273 CPM; CPM ([2]; 5 micrograms): 86,850 CPM and 93,696 CPM; Average CPM ([2]; 10 micrograms): 146,588 CPM; CPM ([2]; 10 micrograms): 178,026 CPM and 115,150 CPM; inhibition at 50 ng ([2]; 0.05 micrograms): 76.7%; inhibition at 0.0001 mg ([2]; 0.1 micrograms): 52.3%; inhibition at 0.0005 mg ([2]; 0.5 micrograms): 80.2%; inhibition at 0.001 mg ([2]; 1 microgram): 81.2%; inhibition at 0.002 mg ([2]; 2 micrograms): 88.5%; inhibition at 0.005 mg ([2]; 5 micrograms): 88.9%; inhibition at 0.01 mg ([2]; 10 micrograms): 82%; EC50 [3]: > 255 µM; EC50 [4]: 0.85 µM |
